Earlier results as cited in US9434743B2, “Indazole derivatives” (TAKEDA PHARMACEUTICAL COMPANY LIMITED, priority 2012, dated 2016).

Tests used:
[1] = diet-induced obesity in mice; cited from earlier work
angiogenesis = conditions: cited from earlier work

In the case of CO[C@@H]1[C@H](OC(=O)/C=C/C=C/C=C/C=C/C(=O)O)CC[C@]2(CO2)[C@H]1[C@@]1(C)O[C@@H]1CC=C(C)C [fumagillin], the “effect on diet-induced obesity” value [1] is given as “impair diet-induced obesity” and the inhibition of angiogenesis (angiogenesis) is given as “inhibit angiogenesis”.
